Data published in patent US12612387B2, “RAS inhibitors and methods of using the same” (Jazz Pharmaceuticals Ireland Limited, priority 2020, dated 2026).

Assays:
K-RAS G12D = biological target: T1, K-RAS G12D (Homo sapiens, UniProt P01116, G12D); assay: Compound depletion assay, K-RAS G12D; format: binding; settings: G12D protein 20 μM, compound 8 μM, 25° C.
T1 construct: His tag; purchased Stratech
Method in brief: (§1)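 His-tagged K-RAS (20 μM) in 20 mM HEPES pH 7.5, 150 mM NaCl, 1 mM MgCl2 incubated with 8 μM compound (final) at 25 °C with agitation. At 0, 30, 180, 360, 1440 min, samples were acid/acetonitrile-quenched and remaining free compound quantified by LC-MS/MS against propranolol, as percent of time zero.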

K-RAS G12C = biological target: T2, K-RAS G12C (Homo sapiens, UniProt P01116, G12C); assay: Compound depletion assay, K-RAS G12C; format: binding; settings: G12C protein 20 μM, compound 8 μM, 25° C.
T2 construct: His tag; purchased Stratech
Method in brief: as §1

T1 sequence (P01116 1-188 isoform P01116-2 G12D): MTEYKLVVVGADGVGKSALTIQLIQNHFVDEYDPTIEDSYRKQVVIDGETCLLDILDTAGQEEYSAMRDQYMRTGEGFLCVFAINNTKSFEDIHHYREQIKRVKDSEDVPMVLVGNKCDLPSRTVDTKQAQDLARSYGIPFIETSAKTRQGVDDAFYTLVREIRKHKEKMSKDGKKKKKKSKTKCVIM
T2 sequence (P01116 1-188 isoform P01116-2 G12C): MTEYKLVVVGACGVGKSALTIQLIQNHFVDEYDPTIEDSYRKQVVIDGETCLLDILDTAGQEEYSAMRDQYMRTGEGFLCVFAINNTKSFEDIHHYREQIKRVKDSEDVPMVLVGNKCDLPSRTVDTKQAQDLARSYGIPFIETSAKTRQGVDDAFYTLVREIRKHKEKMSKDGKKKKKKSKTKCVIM

Row | 30 min Category (compound remaining at timepoint) (K-RAS G12D) | 3 hr Category (compound remaining at timepoint) (K-RAS G12D) | 6 hr Category (compound remaining at timepoint) (K-RAS G12D) | 30 min Category (compound remaining at timepoint) (K-RAS G12C) | 3 hr Category (compound remaining at timepoint) (K-RAS G12C) | 6 hr Category (compound remaining at timepoint) (K-RAS G12C) | 24 hr Category (compound remaining at timepoint) (K-RAS G12D) | 24 hr Category (compound remaining at timepoint) (K-RAS G12C) | SMILES
1 |  | A (≥70% compound remaining at timepoint) |  | A (≥70% compound remaining at timepoint) | A (≥70% compound remaining at timepoint) |  | A (≥70% compound remaining at timepoint) | A (≥70% compound remaining at timepoint) | C=CC(=O)N1CCN(c2cc(C(=O)Nc3cccc4ccccc34)nc(-c3ccnn3C)n2)CC1 [Example 11, 2-(2-methylpyrazol-3-yl)-N-(1-naphthyl)-6-(4-prop-2-enoylpiperazin-1-yl)pyrimidine-4-carboxamide]
2 |  | A (≥70% compound remaining at timepoint) |  |  | A (≥70% compound remaining at timepoint) |  | A (≥70% compound remaining at timepoint) | A (≥70% compound remaining at timepoint) | C=CC(=O)N1CCN(c2cc(C(=O)Nc3cccc4ccccc34)nc(OCCN3CCOCC3)n2)CC1 [Example 07, 2-(2-morpholinoethoxy)-N-(1-naphthyl)-6-(4-prop-2-enoylpiperazin-1-yl)pyrimidine-4-carboxamide]
3 |  | A (≥70% compound remaining at timepoint) |  |  | A (≥70% compound remaining at timepoint) |  | A (≥70% compound remaining at timepoint) | A (≥70% compound remaining at timepoint) | C=CC(=O)N1CCN(c2cc(C(=O)Nc3cccc4ccccc34)nc(N(C)CCN(C)C)n2)CC1 [Example 21, 2-[2-(dimethylamino)ethyl-methyl-amino]-N-(1-naphthyl)-6-(4-prop-2-enoylpiperazin-1-yl)pyrimidine-4-carboxamide]
4 | A (≥70% compound remaining at timepoint) | A (≥70% compound remaining at timepoint) | A (≥70% compound remaining at timepoint) | C (≤30% compound remaining at timepoint) | C (≤30% compound remaining at timepoint) | C (≤30% compound remaining at timepoint) |  |  | C=CC(=O)N1CCN(c2cc(C(=O)Nc3cc(O)cc4ccccc34)nc(OCCC3CCCN3C)n2)C[C@@H]1CC#N (stereo partly drawn) [Example 47, 6-[(3S)-3-(cyanomethyl)-4-prop-2-enoyl-piperazin-1-yl]-N-(3-hydroxy-1-naphthyl)-2-[2-(1-methylpyrrolidin-2-yl)ethoxy]pyrimidine-4-carboxamide]
5 | A (≥70% compound remaining at timepoint) | A (≥70% compound remaining at timepoint) | A (≥70% compound remaining at timepoint) | A (≥70% compound remaining at timepoint) | A (≥70% compound remaining at timepoint) | A (≥70% compound remaining at timepoint) |  |  | C=CC(=O)N1CCN(c2cc(C(=O)Nc3cc(O)cc4ccccc34)nc(-c3cccnc3)n2)C[C@@H]1CC#N [Example 25, 6-[(3S)-3-(cyanomethyl)-4-prop-2-enoyl-piperazin-1-yl]-N-(3-hydroxy-1-naphthyl)-2-(3-pyridyl)pyrimidine-4-carboxamide]

Row | SMILES | 30 min Category (compound remaining at timepoint) (K-RAS G12D) | 3 hr Category (compound remaining at timepoint) (K-RAS G12D) | 6 hr Category (compound remaining at timepoint) (K-RAS G12D) | 30 min Category (compound remaining at timepoint) (K-RAS G12C) | 3 hr Category (compound remaining at timepoint) (K-RAS G12C) | 6 hr Category (compound remaining at timepoint) (K-RAS G12C) | 24 hr Category (compound remaining at timepoint) (K-RAS G12D) | 24 hr Category (compound remaining at timepoint) (K-RAS G12C)
6 | C=CC(=O)N1CCN(c2cc(C(=O)Nc3cc(O)cc4ccccc34)nc(OC[C@H]3CCCN3C)n2)C[C@@H]1CC#N [Example 34, 6-[(3S)-3-(cyanomethyl)-4-prop-2-enoyl-piperazin-1-yl]-N-(3-hydroxy-1-naphthyl)-2-[[(2R)-1-methylpyrrolidin-2-yl]methoxy]pyrimidine-4-carboxamide] | A (≥70% compound remaining at timepoint) | A (≥70% compound remaining at timepoint) | A (≥70% compound remaining at timepoint) | B (30%-70% compound remaining at timepoint) | C (≤30% compound remaining at timepoint) | C (≤30% compound remaining at timepoint) |  | 
7 | C=CC(=O)N1CCN(c2cc(C(=O)Nc3cc(O)cc4ccccc34)nc(-c3ccccn3)n2)C[C@@H]1CC#N [Example 31, 6-[(3S)-3-(cyanomethyl)-4-prop-2-enoyl-piperazin-1-yl]-N-(3-hydroxy-1-naphthyl)-2-(2-pyridyl)pyrimidine-4-carboxamide] | A (≥70% compound remaining at timepoint) | A (≥70% compound remaining at timepoint) | A (≥70% compound remaining at timepoint) | A (≥70% compound remaining at timepoint) | B (30%-70% compound remaining at timepoint) | B (30%-70% compound remaining at timepoint) |  | 
8 | C=CC(=O)N1CCN(c2cc(C(=O)Nc3cc(O)cc4ccccc34)nc(NC[C@@H]3CCCN3Cc3ccccc3)n2)C[C@@H]1CC#N [Example 44, 2-[[(2S)-1-benzylpyrrolidin-2-yl]methylamino]-6-[(3S)-3-(cyanomethyl)-4-prop-2-enoyl-piperazin-1-yl]-N-(3-hydroxy-1-naphthyl)pyrimidine-4-carboxamide] | A (≥70% compound remaining at timepoint) | A (≥70% compound remaining at timepoint) | A (≥70% compound remaining at timepoint) | A (≥70% compound remaining at timepoint) | B (30%-70% compound remaining at timepoint) | B (30%-70% compound remaining at timepoint) |  | 
